# Where two headings read alike, the source gives them in different places.
# Assays:
# [1] = system: plasma triacylglycerol levels; test: Lipid tolerance test in mice; format: in vivo
# Procedure: (1) Lipid Tolerance Test in Mice:
# CDI mice (30 g or so) were individually housed in hanging wire cages at 20-25° C. with a 12:12 hour light:dark cycle (Humidity: 40˜70%). The mice had ad libitum access to water. On the day of experimentation, food jars were removed from each cage 16 hours prior to rate received either vehicle or test article based on a randomization plan generated by randomization. After sixty minutes, oral administration (gavage) of corn oil at a dose volume of 6 mL/kg (time=0). Blood samples were obtained from each mouse via tail snip procedure at −0.5, 0.5, 1, 2 and 4 hours. 20 ul of blood sampling will be rapidly collected, and then is centrifuged at 7000 rpm for 10 min to determine plasma triacylglycerol levels. Triglyceride was quantitated using TG ELISA kit. All data will be analyzed using SPSS. p<0.05 is considered to be statistically significant.
# DGAT1 [2] = biological target: T1, DGAT1 (Homo sapiens, UniProt O75907); test: In vitro assay in HEK-293 cells (13C-labeled oleic acid incorporation into TG, LC/MS/MS); format: cell-based; set-up: endogenous DGAT1-expressing catalytic ^13C-labeled oleic acid incorporate to TG; endogenous in cells; host or cells: HEK293; conditions: for EC50: HEK293 cells
# T1 sequence (O75907 1-488): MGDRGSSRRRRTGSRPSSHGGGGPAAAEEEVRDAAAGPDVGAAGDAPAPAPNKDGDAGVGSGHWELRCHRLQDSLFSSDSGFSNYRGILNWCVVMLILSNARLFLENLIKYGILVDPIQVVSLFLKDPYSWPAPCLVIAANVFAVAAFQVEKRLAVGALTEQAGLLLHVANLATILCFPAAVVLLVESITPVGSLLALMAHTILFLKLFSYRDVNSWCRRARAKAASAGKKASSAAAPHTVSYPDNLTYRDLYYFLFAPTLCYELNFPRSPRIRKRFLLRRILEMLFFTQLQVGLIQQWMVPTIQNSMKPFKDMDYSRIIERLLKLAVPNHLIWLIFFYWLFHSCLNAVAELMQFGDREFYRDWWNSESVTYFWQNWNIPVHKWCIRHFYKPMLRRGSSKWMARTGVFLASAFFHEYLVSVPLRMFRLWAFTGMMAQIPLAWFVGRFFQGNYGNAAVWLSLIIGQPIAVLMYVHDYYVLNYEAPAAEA
# Excerpt: In Vitro Assay in HEK-293 Cells:
# We treated HEK293 cells with stable isotope ^13C-labeled oleic acid and endogenous DGAT1-expressing catalytic ^13C-labeled oleic acid incorporate to TG. The extraction and separation of cell suspension is to obtain the triglycerides composition. A LC/MS/MS method is used to measure the concentration of ^13C in TG to determine catalytic reaction rate of DGAT1, then determine the compound of DGAT1 inhibition (IC50).
# Solubility at pH 7.4 = format: physicochemical; conditions: pH 7.4, aqueous buffer; read-out: Sol pH 7.4
# mouse DGAT1 = biological target: T2, mouse DGAT1 (Mus musculus, UniProt Q9Z2A7); test: Mouse DGAT1 IC50 enzymatic assay; format: biochemical
# T2 construct: made in house
# T2 sequence (Q9Z2A7 1-498): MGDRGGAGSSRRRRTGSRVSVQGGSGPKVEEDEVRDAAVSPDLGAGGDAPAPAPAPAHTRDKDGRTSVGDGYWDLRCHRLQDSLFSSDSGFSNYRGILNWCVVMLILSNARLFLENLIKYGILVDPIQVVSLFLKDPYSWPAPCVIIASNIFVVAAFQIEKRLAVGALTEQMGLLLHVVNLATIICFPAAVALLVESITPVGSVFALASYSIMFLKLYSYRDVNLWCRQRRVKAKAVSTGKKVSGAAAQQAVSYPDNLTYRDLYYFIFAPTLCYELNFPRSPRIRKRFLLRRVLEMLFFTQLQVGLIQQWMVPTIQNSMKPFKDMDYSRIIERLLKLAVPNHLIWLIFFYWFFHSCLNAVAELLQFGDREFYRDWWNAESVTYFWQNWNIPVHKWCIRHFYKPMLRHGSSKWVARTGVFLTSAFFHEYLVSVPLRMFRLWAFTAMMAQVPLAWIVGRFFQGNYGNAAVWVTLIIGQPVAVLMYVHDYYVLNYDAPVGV
# Procedure: Expressing human DGAT1 enzyme, used diacylglycerol and 14C-labeled acyl-CoA as the substrate, choose PE Company Flashplate testing board to build DGAT1 enzyme reaction system. 14C-labeled acyl-CoA binds to diacylglycerol by covalent bonding after enzymology reaction, and generates the product of 14C-labeled triglyceride. 14C-labeled acyl-CoA substrate is dissolved in reaction solution and 14C-labeled triglyceride product combine with phospholipids of Flashplate plate bottom layer, thus effectively separate labeled substrates and products. The radioactive of 14C-labeled triglyceride which is combined with phospholipid layer is counted, and the potencies of DGAT-1 inhibition for the compounds are determined by calculating the IC50 values.
# Mouse DGAT1 activity was determined as follows:
# Mouse DGAT1 IC50 determination method: in addition to expression of mouse DGAT1, experiment method with human DGAT1 enzymatic assay is the same.
# DGAT1 [3] = biological target: T1, DGAT1; test: Human DGAT1 IC50 enzyme assay (Flashplate, 14C-labeled acyl-CoA); format: biochemical; set-up: made in house
# Procedure, shortened: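 Recombinant human DGAT1 with diacylglycerol and 14C-labeled acyl-CoA substrates; 14C-triglyceride product captured on phospholipid-coated Flashplate and counted. IC50 from inhibition of product signal; Ki derived via Cheng-Prusoff, Ki=IC50/(1+[S]/Km).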
# [4] = Diet induced obesity in mice; format: in vivo; conditions: DIO mice
# Procedure: (2) Diet Induced Obesity in Mice
# Male C57bl/6J mice (6 weeks) were individually housed in hanging wire cages at 20-25° C. with a 12:12 hour light:dark cycle (Humidity: 40˜70%). After one week acclimation, the mice are fed with high fat pelleted diet (D12492i, Research Diets, Inc) and fresh water, ad libitum. Typically; C57BL/6J male mice become obese, and reach 40-50 g after 12-14 weeks of high fat diet treatment.
# Animals accept oral gavages acclimation for two weeks. Then next, they are dosed with test articles or vehicle (bid) accordingly for 7 day. Food intake and body weight are recorded every day. Data are graphed by Graph Pad Prism 5.0 and evaluated using SPSS, p<0.05 is considered to be statistically significant.
# [5] = Plasma pharmacokinetics in male SD rats; format: in vivo; conditions: rat; for AUC(0-t) / half-life / Vd / bioavailability: male, SD, plasma; for AUC(0-t): read-out: AUC0-1 (ng · n/mL); for half-life: read-out: T1/2 (b) (converted); for Vd: intravenous, 2 mg/kg, read-out: Vdss; for bioavailability: oral, 10 mg/kg
# Procedure: (3) Pharmacokinetics of Test Compounds
# The purpose of this study is to determine the plasma pharmacokinetics of male SD rats. Two animals will receive a solution of test article in vehicle by single intravenous bolus via tail vein; the dosage is 2 mg/kg. Blood samples are taken at specified time points (0, 0.0833, 0.25, 0.5, 1, 2, 4, 7, 24 h) after dosing. Another two animals will receive a solution or suspension of TA in vehicle by oral gavage at 10 mg/kg. The schedule for sample collection is 0.5, 1, 2, 3, 4, 6, 24 h after dosing. A LC/MS/MS method is used to measure the concentration of test compound in plasma. Non-compartmental pharmacokinetic analysis is performed on the plasma concentration-time data. PK parameters of calculations are done using Phoenix WinNonlin. 6.2.1 software program.
# [6] = average of first and second, read-out: hDGAT1 IC50(nM) Average
# [7] = first determination, read-out: hDGAT1 IC50(nM) First
# [8] = second determination, read-out: hDGAT1 IC50(nM) Second
# [9] = iv, 1.78-2.06 mg/kg as printed in each cell
Structure (SMILES),Inhibtion % @ 2 h 1 MPK PO [1],EC50 (DGAT1 [2]),solubility (Solubility at pH 7.4),IC50 (mouse DGAT1),IC50 (DGAT1 [3]; [6]),IC50 (DGAT1 [3]; [7]),IC50 (DGAT1 [3]; [8]),7 days Cumulative Body Weight Change (%) ([4]; 10mpk BID),7 days Cumulative Food Intake Change (%) ([4]; 10mpk BID),"AUC(0-t) [5, 9]","half-life ([5]; po, 8.94-9.33 mg/kg)",Vd [5],bioavailability [5],CI [5],cell activity (DGAT1 [2]; compared with Pradigastat),"half-life [5, 9]",body weight ([4]; 30 mpk BID),food intake ([4]; 30 mpk BID),7 days Cumulative Body Weight Change (%) ([4]; 30mpk BID),7 days Cumulative Food Intake Change (%) ([4]; 30mpk BID)
"Cc1cc(N2CCOc3ncnc(N)c3C2=O)cc(C)c1-c1cn(CC(F)(F)F)nc1C [Compound 41, 4-amino-6-(3,5-dimethyl-4-(3-methyl-1-(2,2,2-trifluoroethyl)-1H-pyrazol-4-yl)phenyl)-7,8-dihydropyrimido[5,4-f][1,4]oxazepin-5(6H)-one]",83% inh,22.1 nM,187 µM,12.5 nM,31.3 nM,37.7 nM,30 nM,−3.32%,−16.35%,2120 ng·h/mL,192 min,1.49 L/kg,~100%,14.4 mL/min/kg,–,–,–,–,–,–
"Cc1cc(N2CCOc3ncnc(N)c3C2=O)cc(C)c1-c1ccc2ccn(CC(F)(F)F)c(=O)c2c1 [Compound 105, 4-amino-6-(3,5-dimethyl-4-(1-oxo-2-(2,2,2-trifluoroethyl)-1,2-dihydroisoquinolin-7-yl)phenyl)-7,8-dihydropyrimido[5,4-f][1,4]oxazepin-5-(6H)-one]",118% inh,3.64 nM,70 µM,33.6 nM,31.7 nM,27 nM,36.4 nM,−1.06%,−8.56%,17700 ng·h/mL,176 min,0.54 L/kg,56.8%,1.96 mL/min/kg,better cell activity,229 min,–,–,–,–
"O=C(O)C[C@H]1CC[C@H](c2ccc(-c3ccc(Nc4ccc(C(F)(F)F)nc4)cn3)cc2)CC1 [Pradigastat, reference compound]",34% inh,3.65 nM,22 µM,30.2 nM,49 nM,68.2 nM,29.7 nM,–,–,42900 ng·h/mL,140 min,0.15 L/kg,14.9%,0.70 mL/min/kg,–,131 min,increased slight,increased slight,1.72%,5.85%
